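Following 48 hours of exposure in 96-well plates, responses at five concentrations were used to interpolate endpoints linearly. At the GI50, growth is halved.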 Active and inactive are the calls of the source. No stated cut-off is given here; in the data, active = GI50 up to about 1.1 µM and inactive = higher.
Key:
Assay in all cases: NCI anticancer screen, dose series, 48 h
[1] = system: SK-OV-3
[2] = system: HCT-15
[3] = system: SNB-19
[4] = system: OVCAR-5
[5] = system: ACHN
[6] = system: HCC 2998
[7] = system: SNB-75
[8] = system: OVCAR-4
[9] = system: HT-29
[10] = system: A498
[11] = system: NCI-H522
[12] = system: SF-539
[13] = system: NCI-H23
[14] = system: UACC-62
[15] = system: CAKI-1
[16] = system: NCI-H226
[17] = system: TK-10
[18] = system: SK-MEL-28
[19] = system: SF-268

Row | Structure (SMILES) | GI50 [1] | GI50 [2] | GI50 [3] | GI50 [4] | GI50 [5] | GI50 [6] | GI50 [7] | GI50 [8] | GI50 [9] | GI50 [10] | GI50 [11] | GI50 [12] | GI50 [13] | GI50 [14] | GI50 [15] | GI50 [16] | GI50 [17] | GI50 [18] | GI50 [19]
1 | c1csc(C(NC2=NCCO2)C2CC2)c1 (stereo not drawn) | > 100 µM (inactive) | > 100 µM | > 100 µM (inactive) | > 100 µM (inactive) | > 100 µM (inactive) | > 100 µM (inactive) | > 100 µM (inactive) | > 100 µM (inactive) | 83.9 µM (inactive) | > 100 µM (inactive) | > 100 µM (inactive) | > 100 µM (inactive) | > 100 µM (inactive) | > 100 µM (inactive) | > 100 µM (inactive) | > 100 µM (inactive) |  |  | 
2 | COC(=O)c1s/c(=N\C(=S)N(C)C)n(-c2ccc(Cl)cc2)c1C(=O)OC | > 10 µM (inactive) | > 100 µM | > 100 µM (inactive) | > 100 µM (inactive) | > 100 µM (inactive) | > 100 µM (inactive) | > 10 µM (inactive) | 56.4 µM (inactive) | > 100 µM (inactive) | > 100 µM (inactive) | 49 µM (inactive) | 95.5 µM (inactive) | > 100 µM (inactive) | > 10 µM (inactive) | 59.2 µM (inactive) | > 100 µM (inactive) | > 100 µM (inactive) | > 100 µM (inactive) | > 100 µM (inactive)
3 | CCOC(=O)c1cc2c(ccc3cc(C(=O)OCC)[nH]c32)[nH]1 | > 100 µM (inactive) | 33.3 µM | 25.4 µM (inactive) | > 100 µM (inactive) | 55.5 µM (inactive) | 99.8 µM (inactive) | 16.8 µM (inactive) | 11.4 µM (inactive) |  | 52 µM (inactive) | 67.1 µM (inactive) | 12.3 µM (inactive) | 27.2 µM (inactive) | 45.9 µM (inactive) | 29 µM (inactive) |  | 50.2 µM (inactive) | 8.36 µM (inactive) | 17.1 µM (inactive)
4 | CC(C)(C)C1=CC(=N/N=c2\scc(-c3ccccc3)n2Cc2ccccc2)C=C(C(C)(C)C)C1=O |  | > 100 µM | > 100 µM (inactive) | > 100 µM (inactive) | > 100 µM (inactive) | > 100 µM (inactive) | > 100 µM (inactive) | > 100 µM (inactive) | > 100 µM (inactive) | > 100 µM (inactive) |  | > 100 µM (inactive) | > 100 µM (inactive) | > 100 µM (inactive) | > 100 µM (inactive) | > 100 µM (inactive) |  | > 100 µM (inactive) | > 100 µM (inactive)
5 | COc1ccc(N2C(=O)[C@@H]3[C@@H]4CC(C)CC[C@@H]4c4c([nH]c5ccccc45)[C@@H]3C2=O)cc1 (stereo partly drawn) | 7.98 µM (inactive) | 15.3 µM | 8.24 µM (inactive) | > 77.6 µM (inactive) | 7.36 µM (inactive) | 13.5 µM (inactive) | 2.82 µM (inactive) | 18 µM (inactive) | 47.4 µM (inactive) | 16.4 µM (inactive) | 19.4 µM (inactive) | 8.38 µM (inactive) | 15.5 µM (inactive) | 15.9 µM (inactive) | 29 µM (inactive) | 7.38 µM (inactive) | 18.8 µM (inactive) | 36 µM (inactive) | 13.3 µM (inactive)
6 | CN/N=C(/Cc1occc(=O)c1O)C(=O)Nc1ccc(C)c(C)c1 | > 100 µM (inactive) | > 100 µM | > 100 µM (inactive) | > 100 µM (inactive) | > 100 µM (inactive) | > 100 µM (inactive) |  | > 100 µM (inactive) | > 100 µM (inactive) | > 100 µM (inactive) | > 100 µM (inactive) | > 100 µM (inactive) | > 100 µM (inactive) | > 100 µM (inactive) | > 100 µM (inactive) | > 100 µM (inactive) | > 100 µM (inactive) | > 100 µM (inactive) | > 100 µM (inactive)
7 | CC1=C(C)CC2(CCCCC2=O)[S+]([O-])C1 (stereo not drawn) | > 100 µM (inactive) | > 100 µM | > 100 µM (inactive) | > 100 µM (inactive) | > 100 µM (inactive) | > 100 µM (inactive) | > 100 µM (inactive) | > 100 µM (inactive) | > 100 µM (inactive) | > 100 µM (inactive) |  | > 100 µM (inactive) | > 100 µM (inactive) | > 100 µM (inactive) |  | > 100 µM (inactive) | > 100 µM (inactive) | > 100 µM (inactive) | > 100 µM (inactive)
8 | O=C(Nc1c(Cl)cc([N+](=O)[O-])cc1Cl)C(=O)C(C1OC(=O)c2ccccc21)[N+](=O)[O-] (stereo not drawn) | > 100 µM (inactive) | > 100 µM | > 100 µM (inactive) | > 100 µM (inactive) | > 100 µM (inactive) | > 100 µM (inactive) | > 100 µM (inactive) | > 100 µM (inactive) | > 100 µM (inactive) | 31.6 µM (inactive) |  | > 100 µM (inactive) | > 100 µM (inactive) | > 100 µM (inactive) | > 100 µM (inactive) | > 100 µM (inactive) | > 100 µM (inactive) | > 100 µM (inactive) | > 100 µM (inactive)
9 | NC12CC3CC(C1)CC(Cl)(C3)C2 | > 100 µM (inactive) |  |  | > 100 µM (inactive) | > 100 µM (inactive) | > 100 µM (inactive) | > 100 µM (inactive) |  | > 100 µM (inactive) | > 100 µM (inactive) | > 100 µM (inactive) | > 100 µM (inactive) | > 100 µM (inactive) | > 100 µM (inactive) |  |  | > 100 µM (inactive) | > 100 µM (inactive) | 
10 | Cc1ccc(S(=O)(=O)NCC2CCCCC2=O)cc1 (stereo not drawn) | > 100 µM (inactive) | > 100 µM | > 100 µM (inactive) | > 100 µM (inactive) |  |  | 22.9 µM (inactive) | 69.3 µM (inactive) | 10.2 µM (inactive) | > 100 µM (inactive) | 56.8 µM (inactive) | > 100 µM (inactive) | > 100 µM (inactive) | 66.5 µM (inactive) | 15 µM (inactive) | > 100 µM (inactive) | > 100 µM (inactive) | > 100 µM (inactive) | 70 µM (inactive)
11 | Cc1noc(/N=C2\C=C(Nc3onc(C)c3C)C(=O)c3ccccc32)c1C | > 100 µM (inactive) | > 100 µM | > 100 µM (inactive) | > 100 µM (inactive) | > 100 µM (inactive) | > 100 µM (inactive) | 69.3 µM (inactive) | > 100 µM (inactive) | > 100 µM (inactive) | > 100 µM (inactive) |  | > 100 µM (inactive) | 27.5 µM (inactive) | 27.7 µM (inactive) | > 100 µM (inactive) | > 100 µM (inactive) | > 100 µM (inactive) | > 100 µM (inactive) | 86.3 µM (inactive)
12 | O=C(CCN(C(=O)O)S(=O)(=O)c1ccc(NC(=O)c2ccccc2)cc1)NC1CCCCC1 | > 100 µM (inactive) | 47.6 µM | > 100 µM (inactive) | > 100 µM (inactive) | > 100 µM (inactive) | > 100 µM (inactive) | > 100 µM (inactive) | > 100 µM (inactive) | 21.6 µM (inactive) | > 100 µM (inactive) | > 100 µM (inactive) | > 100 µM (inactive) | > 100 µM (inactive) | > 100 µM (inactive) | > 100 µM (inactive) | > 100 µM (inactive) | > 100 µM (inactive) | > 100 µM (inactive) | > 100 µM (inactive)
13 | O=C(CCC(=O)C1CCC/C1=N/O)Nc1ccc(Cl)cc1 (stereo not drawn) | > 100 µM (inactive) | > 100 µM | > 100 µM (inactive) | > 100 µM (inactive) | > 100 µM (inactive) | > 100 µM (inactive) | 74.5 µM (inactive) | > 100 µM (inactive) | > 100 µM (inactive) | > 100 µM (inactive) | > 100 µM (inactive) | > 100 µM (inactive) | > 100 µM (inactive) | > 100 µM (inactive) | > 100 µM (inactive) | > 100 µM (inactive) | > 100 µM (inactive) | > 100 µM (inactive) | > 100 µM (inactive)
14 | CC(=O)OCC1OC(n2cc([N+](=O)[O-])c(=O)[nH]c2=O)C(OC(C)=O)C(OC(C)=O)C1OC(C)=O (stereo not drawn) | > 100 µM (inactive) | > 100 µM | > 100 µM (inactive) | > 100 µM (inactive) | > 100 µM (inactive) | > 100 µM (inactive) | 54.6 µM (inactive) | > 100 µM (inactive) | > 100 µM (inactive) | > 100 µM (inactive) | > 100 µM (inactive) |  | > 100 µM (inactive) | > 100 µM (inactive) | > 100 µM (inactive) | 42.2 µM (inactive) | > 100 µM (inactive) | > 100 µM (inactive) | > 100 µM (inactive)
15 | CCOC(=O)C1=C(N)N(c2ccccc2)/C(=C(/C#N)c2nc3ccccc3[nH]2)S1 | > 100 µM (inactive) | > 100 µM | > 100 µM (inactive) | > 100 µM (inactive) | > 100 µM (inactive) |  | > 100 µM (inactive) | > 100 µM (inactive) | > 100 µM (inactive) | > 100 µM (inactive) | > 100 µM (inactive) | > 100 µM (inactive) | > 100 µM (inactive) | > 100 µM (inactive) | > 100 µM (inactive) | > 100 µM (inactive) | > 100 µM (inactive) | > 100 µM (inactive) | 80.9 µM (inactive)
16 | CC(C)=CCCC(C)[C@H]1CC(O)C2(C)C3=CCC4C(C)(C)[C@@H](O)CC[C@]4(C)C3=CC[C@]12C (stereo partly drawn) | 7.82 µM (inactive) | 5.01 µM | 12.1 µM (inactive) | 25 µM (inactive) |  |  | 7.48 µM (inactive) | 2.31 µM (inactive) | 2.72 µM (inactive) | 3.98 µM (inactive) | 0.401 µM (active) | 2.09 µM (inactive) | 3.72 µM (inactive) | 4.23 µM (inactive) | 8.36 µM (inactive) | 3.74 µM (inactive) | 16.7 µM (inactive) |  | 6.01 µM (inactive)

From ChEMBL document CHEMBL1201862, “PubChem BioAssay data set” (2004)
